According to patent US12281079B2, “Quinoline derivatives, processes for their preparation and uses thereof for the treatment of cancer” (Lead Discovery Center GmbH, priority 2019, dated 2025):
Structures can show the parent of a compound that is named as a salt.

Experiments:
[1] = biological target: mitochondrial RNA polymerase (POLRMT) (Mus musculus, UniProt Q8BKF1); experiment: Homogeneous TR-FRET assay for mitochondrial transcription activity; type: biochemical; details: homogeneous TR-FRET assay according to Example 4
Chain of mitochondrial RNA polymerase (POLRMT) (Q8BKF1 42-1207): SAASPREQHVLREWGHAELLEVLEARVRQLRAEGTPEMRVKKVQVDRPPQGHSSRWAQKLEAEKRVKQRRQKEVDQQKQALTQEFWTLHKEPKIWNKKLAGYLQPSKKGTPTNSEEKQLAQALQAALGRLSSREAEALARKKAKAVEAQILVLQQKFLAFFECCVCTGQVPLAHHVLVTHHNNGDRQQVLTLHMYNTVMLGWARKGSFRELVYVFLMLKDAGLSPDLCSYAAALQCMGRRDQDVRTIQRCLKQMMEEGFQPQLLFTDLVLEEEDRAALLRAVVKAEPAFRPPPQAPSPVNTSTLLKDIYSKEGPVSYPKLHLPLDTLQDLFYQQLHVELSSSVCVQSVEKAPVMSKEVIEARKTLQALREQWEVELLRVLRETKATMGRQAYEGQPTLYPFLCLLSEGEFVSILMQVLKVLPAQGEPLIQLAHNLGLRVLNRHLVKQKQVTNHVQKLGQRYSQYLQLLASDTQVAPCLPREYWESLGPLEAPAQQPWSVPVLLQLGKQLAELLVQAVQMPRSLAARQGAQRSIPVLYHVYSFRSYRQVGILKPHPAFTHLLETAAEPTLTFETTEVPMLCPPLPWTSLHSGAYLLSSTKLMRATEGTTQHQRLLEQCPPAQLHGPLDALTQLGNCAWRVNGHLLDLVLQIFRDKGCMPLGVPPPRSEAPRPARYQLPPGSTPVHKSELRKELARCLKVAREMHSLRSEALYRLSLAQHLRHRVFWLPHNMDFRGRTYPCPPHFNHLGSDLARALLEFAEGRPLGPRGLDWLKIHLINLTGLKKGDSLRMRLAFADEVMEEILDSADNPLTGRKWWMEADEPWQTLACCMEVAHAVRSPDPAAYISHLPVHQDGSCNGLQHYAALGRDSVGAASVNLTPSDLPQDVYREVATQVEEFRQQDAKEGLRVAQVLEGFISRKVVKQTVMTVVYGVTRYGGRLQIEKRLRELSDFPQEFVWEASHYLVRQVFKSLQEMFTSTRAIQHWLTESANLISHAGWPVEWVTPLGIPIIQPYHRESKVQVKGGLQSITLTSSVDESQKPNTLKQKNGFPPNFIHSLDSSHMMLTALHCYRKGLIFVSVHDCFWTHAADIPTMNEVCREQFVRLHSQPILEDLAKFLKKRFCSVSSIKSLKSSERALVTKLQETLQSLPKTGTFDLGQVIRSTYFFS
Method in brief: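 Read-out is TR-FRET (ex 340, em 665 nm) from two adjacent labelled DNA probes annealing to the 407 bp transcript after EDTA/700 mM NaCl stop. Reaction: murine POLRMT, TFAM, TFB2M and LSP plasmid template, compound 10 μM or serial dilution, 10 min rt preincubation, 500 μM each nucleotide, 2 h rt.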

[2] = test system: mitochondrial transcription (7S RNA) in HeLa cells; experiment: Quantitative real time-PCR assay of inhibition of mitochondrial transcription (7S RNA) in HeLa cells; type: cell-based; details: Homo sapiens, 4 h compound incubation, according to Example 5, read-out: cellular qPCR assay
Method in brief: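 HeLa cells were exposed to compound dilution series or DMSO for 4 h, then RNA was extracted, normalized and reverse-transcribed. TaqMan qRT-PCR measured short-lived 7S RNA, with POLRMT as nuclear-transcription readout and TBP as housekeeping gene. Biological triplicates were analyzed by ΔΔCt and reported as Rq % (2−ΔΔCt).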

C[C@@H](Oc1ccc2c(-c3ccc(F)cc3Cl)ccnc2c1)C(=O)N1CCNCC1 [Compound 55, (R)-2-((4-(2-chloro-4-fluorophenyl)quinolin-7 yl)oxy)-1-(piperazin-1 yl)propan-1-one 2×TFA salt]
IC50 [1]: 0.1 to 1 µM | IC50 [2]: 0.05 to 0.5 µM

C[C@@H](Oc1ccc2c(-c3ccc(F)cc3Cl)cc(Cl)nc2c1)C(=O)N1CCC[C@H](CC(=O)O)C1 [Compound 56, 2-[(3R)-1-[(2R)-2-[[2-chloro-4-(2-chloro-4-fluoro-phenyl)-7-quinolyl]oxy]propanoyl]-3-piperidyl]acetic acid]
IC50 [1]: 0.1 to 1 µM | IC50 [2]: 0.05 to 0.5 µM

Cc1cc(F)ccc1-c1cc(Cl)nc2cc(O[C@H](C)C(=O)N3CCC[C@H](CC(=O)O)C3)ccc12 [Compound 57, 2-[(3R)-1-[(2R)-2-[[2-chloro-4-(4-fluoro-2-methyl-phenyl)-7-quinolyl]oxy]propanoyl]-3-piperidyl]acetic acid]
IC50 [1]: 0.1 to 1 µM | IC50 [2]: 0.05 to 0.5 µM

Cc1cc(-c2ccc(F)cc2Cl)c2ccc(O[C@H](C)C(=O)N3CCC[C@H](C(=O)O)C3)cc2n1 [Compound 59, (3S)-1-[(2R)-2-[[4-(2-chloro-4-fluoro-phenyl)-2-methyl-7-quinolyl]oxy]propanoyl]piperidine-3-carboxylic acid]
IC50 [1]: 0.1 to 1 µM | IC50 [2]: 0.01 to 0.05 µM

C[C@@H](Oc1ccc2c(-c3ccc(F)cc3Cl)ccnc2c1)C(=O)Nc1ccc(C(=O)O)cc1 [Compound 60, 4-[[(2R)-2-[[4-(2-chloro-4-fluoro-phenyl)-7-quinolyl]oxy]propanoyl]amino]benzoic acid]
IC50 [1]: 0.1 to 1 µM | IC50 [2]: 0.05 to 0.5 µM

CC(C)NC(=O)[C@@H](C)Oc1ccc2c(-c3ccc(F)cc3Cl)ccnc2c1 [Compound 61, (2R)-2-[[4-(2-chloro-4-fluoro-phenyl)-7-quinolyl]oxy]-N-isopropyl-propanamide]
IC50 [1]: 0.1 to 1 µM | IC50 [2]: 0.05 to 0.5 µM

C[C@@H](Oc1ccc2c(-c3ccc(F)cc3Cl)ccnc2c1)C(=O)N1CCNC(=O)C1 [Compound 63, (R)-4-(2-((4-(2-chloro-4-fluorophenyl)quinolin-7-yl)oxy)propanoyl)piperazin-2-one]
IC50 [1]: 0.1 to 1 µM | IC50 [2]: 0.05 to 0.5 µM

C[C@@H](Oc1ccc2c(-c3ccc(F)cc3Cl)cc(Cl)nc2c1)C(=O)N1CCC[C@H](C(=O)O)C1 [Compound 64, (3S)-1-[(2R)-2-[[2-chloro-4-(2-chloro-4-fluoro-phenyl)-7-quinolyl]oxy]propanoyl]piperidine-3-carboxylic acid]
IC50 [1]: 0.1 to 1 µM | IC50 [2]: 0.05 to 0.5 µM

C[C@@H](Oc1ccc2c(-c3ccccc3)ccnc2c1)C(=O)N1CCC[C@H](C(=O)O)C1 [Compound 66, (3S)-1-[(2R)-2-[(4-phenyl-7-quinolyl)oxy]propanoyl]piperidine-3-carboxylic acid]
IC50 [1]: 0.1 to 1 µM | IC50 [2]: 0.01 to 0.05 µM

CNC(=O)C[C@H]1CCCN(C(=O)[C@@H](C)Oc2ccc3c(-c4ccccc4Cl)cc(Cl)nc3c2)C1 [Compound 68, 2-[(3R)-1-[(2R)-2-[[2-chloro-4-(2-chlorophenyl)-7-quinolyl]oxy]propanoyl]-3-piperidyl]-N-methyl-acetamide]
IC50 [1]: 0.1 to 1 µM | IC50 [2]: 0.05 to 0.5 µM

Cc1cc(-c2ccccc2C)c2ccc(O[C@H](C)C(=O)N3CCC[C@H](CC(=O)O)C3)cc2n1 [Compound 69, 2-[(3R)-1-[(2R)-2-[[2-methyl-4-(o-tolyl)-7-quinolyl]oxy]propanoyl]-3-piperidyl]acetic acid]
IC50 [1]: 0.1 to 1 µM | IC50 [2]: 0.01 to 0.05 µM

C[C@@H](Oc1ccc2c(-c3ccccc3Cl)cc(Cl)nc2c1)C(=O)N1CCN(C(=O)C2CC2)CC1 [Compound 70, (2R)-2-[[2-chloro-4-(2-chlorophenyl)-7-quinolyl]oxy]-1-[4-(cyclopropanecarbonyl)piperazin-1-yl]propan-1-one]
IC50 [1]: 0.1 to 1 µM | IC50 [2]: 0.5 to 5 µM

Cc1ccccc1-c1cc(Cl)nc2cc(O[C@H](C)C(=O)OC(C)(C)C)ccc12 [Compound 73, tert-butyl (2R)-2-[[2-chloro-4-(o-tolyl)-7-quinolyl]oxy]propanoate]
IC50 [1]: 0.1 to 1 µM | IC50 [2]: 0.05 to 0.5 µM

CCOC(=O)C[C@H]1CCCN(C(=O)[C@@H](C)Oc2ccc3c(-c4ccc(F)cc4Cl)cc(C)nc3c2)C1 [Compound 74, ethyl 2-[(3R)-1-[(2R)-2-[[4-(2-chloro-4-fluoro-phenyl)-2-methyl-7-quinolyl]oxy]propanoyl]-3-piperidyl]acetate]
IC50 [1]: 0.1 to 1 µM | IC50 [2]: 0.05 to 0.5 µM

C[C@@H](Oc1ccc2c(-c3ccccc3Cl)cc(Cl)nc2c1)C(=O)N1CCC[C@H](C(N)=O)C1 [Compound 76, (3S)-1-[(2R)-2-[[2-chloro-4-(2-chlorophenyl)-7-quinolyl]oxy]propanoyl]piperidine-3-carboxamide]
IC50 [1]: 0.1 to 1 µM | IC50 [2]: 0.01 to 0.05 µM

C[C@@H](Oc1ccc2c(-c3ccc(F)cc3Cl)ccnc2c1)C(=O)NC1CC1 [Compound 77, (2R)-2-[[4-(2-chloro-4-fluoro-phenyl)-7-quinolyl]oxy]-N-cyclopropyl-propanamide]
IC50 [1]: 0.1 to 1 µM | IC50 [2]: 0.05 to 0.5 µM

C[C@H](Oc1ccc2c(-c3ccccc3Cl)ccnc2c1)C(=O)N1CCC[C@H](C(=O)O)C1 [Compound 78, (3S)-1-[(2S)-2-[[4-(2-chlorophenyl)-7-quinolyl]oxy]propanoyl]piperidine-3-carboxylic acid]
IC50 [1]: 0.1 to 1 µM | IC50 [2]: 0.5 to 5 µM

Cc1sccc1-c1ccnc2cc(O[C@H](C)C(=O)N3CCC[C@H](CC(=O)O)C3)ccc12 [Compound 79, 2-[(3R)-1-[(2R)-2-[[4-(2-methyl-3-thienyl)-7-quinolyl]oxy]propanoyl]-3-piperidyl]acetic acid]
IC50 [1]: 0.1 to 1 µM | IC50 [2]: 0.05 to 0.5 µM

C[C@@H](Oc1ccc2c(-c3ccc(F)cc3Cl)cc(Cl)nc2c1)C(=O)N1CCC[C@H](C(N)=O)C1 [Compound 81, (3S)-1-[(2R)-2-[[2-chloro-4-(2-chloro-4-fluoro-phenyl)-7-quinolyl]oxy]propanoyl]piperidine-3-carboxamide]
IC50 [1]: 1 to 10 µM | IC50 [2]: 0.05 to 0.5 µM

C[C@@H](Oc1ccc2c(-c3ccccc3Cl)cc(Cl)nc2c1)C(=O)N1CCC[C@H](CC(=O)O)C1 [Compound 83, 2-[(3R)-1-[(2R)-2-[[2-chloro-4-(2-chlorophenyl)-7-quinolyl]oxy]propanoyl]-3-piperidyl]acetic acid]
IC50 [1]: 1 to 10 µM | IC50 [2]: 0.5 to 5 µM

CC(Oc1ccc2c(-c3ccccc3Cl)ccnc2c1)C(=O)N(C)C (centres unmarked) [Compound 86, 2-[[4-(2-chlorophenyl)-7-quinolyl]oxy]-N,N-dimethyl-propanamide]
IC50 [1]: 1 to 10 µM | IC50 [2]: 0.05 to 0.5 µM

C[C@@H](Oc1ccc2c(-c3ccccc3Cl)ccnc2c1)C(=O)N(C)C [Compound 88, (2R)-2-[[4-(2-chlorophenyl)-7-quinolyl]oxy]-N,N-dimethyl-propanamide]
IC50 [1]: 1 to 10 µM | IC50 [2]: 0.05 to 0.5 µM

C[C@@H](Oc1ccc2c(-c3ccc(F)cc3Cl)ccnc2c1)C(=O)Nc1ccncc1 [Compound 95, (2R)-2-[[4-(2-chloro-4-fluoro-phenyl)-7-quinolyl]oxy]-N-(4-pyridyl)propanamide]
IC50 [1]: 0.1 to 1 µM | IC50 [2]: 0.05 to 0.5 µM

C[C@@H](Oc1ccc2c(-c3ccccc3Cl)cc(Cl)nc2c1)C(=O)N1CCCCC1 [Compound 99, (2R)-2-[[2-chloro-4-(2-chlorophenyl)-7-quinolyl]oxy]-1-(1-piperidyl)propan-1-one]
IC50 [1]: 1 to 10 µM | IC50 [2]: 0.5 to 5 µM

Cc1cc(-c2ccc(F)cc2Cl)c2ccc(O[C@H](C)C(=O)N3CCC[C@H](CC(=O)O)C3)cc2n1 [Compound 101, 2-[(3R)-1-[(2R)-2-[[4-(2-chloro-4-fluoro-phenyl)-2-methyl-7-quinolyl]oxy]propanoyl]-3-piperidyl]acetic acid]
IC50 [1]: 1 to 10 µM | IC50 [2]: 0.5 to 5 µM

C[C@@H](Oc1ccc2c(-c3ccccc3Cl)cc(Cl)nc2c1)C(=O)N1CCNCC1 [Compound 104, (2R)-2-[[2-chloro-4-(2-chlorophenyl)-7-quinolyl]oxy]-1-piperazin-1-yl-propan-1-one]
IC50 [1]: 1 to 10 µM | IC50 [2]: 0.05 to 0.5 µM

C[C@@H](Oc1ccc2c(-c3ccccc3Cl)ccnc2c1)C(=O)N1CCC(CC(=O)O)CC1 [Compound 112, 2-[1-[(2R)-2-[[4-(2-chlorophenyl)-7-quinolyl]oxy]propanoyl]-4-piperidyl]acetic acid]
IC50 [1]: 0.02 to 0.1 µM | IC50 [2]: 0.01 to 0.05 µM

Cc1cc(-c2c(C)cccc2C)c2ccc(O[C@H](C)C(=O)N3CCC[C@H](S(N)(=O)=O)C3)cc2n1 [Compound 113, (3S)-1-[(2R)-2-[[4-(2,6-dimethylphenyl)-2-methyl-7-quinolyl]oxy]propanoyl]piperidine-3-sulfonamide]
IC50 [1]: 0.1 to 1 µM | IC50 [2]: 0.05 to 0.5 µM

Cc1cc(-c2c(C)cccc2C)c2ccc(O[C@H](C)C(=O)N3CCC[C@@H](S(N)(=O)=O)C3)cc2n1 [Compound 114, (3R)-1-[(2R)-2-[[4-(2,6-dimethylphenyl)-2-methyl-7-quinolyl]oxy]propanoyl]piperidine-3-sulfonamide]
IC50 [1]: 0.1 to 1 µM | IC50 [2]: 0.01 to 0.05 µM

Cc1cc(-c2ccc(F)cc2Cl)c2ccc(O[C@H](C)C(=O)N3CCC[C@@H](S(N)(=O)=O)C3)cc2n1 [Compound 115, (3R)-1-[(2R)-2-[[4-(2-chloro-4-fluoro-phenyl)-2-methyl-7-quinolyl]oxy]propanoyl]piperidine-3-sulfonamide]
IC50 [1]: 1 to 10 µM | IC50 [2]: 0.05 to 0.5 µM

C[C@@H](Oc1ccc2c(-c3ccc(F)cc3Cl)ccnc2c1)C(=O)N1CCC[C@H](S(N)(=O)=O)C1 [Compound 116, (3S)-1-[(2R)-2-[[4-(2-chloro-4-fluoro-phenyl)-7-quinolyl]oxy]propanoyl]piperidine-3-sulfonamide]
IC50 [1]: 0.1 to 1 µM | IC50 [2]: < 0.01 µM
